Results from PMC3094704, “S-Petasin, the Main Sesquiterpene of Petasites formosanus, Inhibits Phosphodiesterase Activity and Suppresses Ovalbumin-Induced Airway Hyperresponsiveness” (Evidence-based Complementary and Alternative Medicine : eCAM, 2011).
Counter-ions that a name gives are not always drawn.

Experiments:
[1] = molecular target: PDE4; assay: Inhibition of PDE4 activity and Lineweaver-Burk analysis; format: biochemical, guinea pig
Description: (§1) Activities of PDE1–5, partially separated from guinea pig lungs and hearts according to the method described by Ko et al., were measured with a two-step procedure according to the method of Thompson and Appleman, using cAMP with [^3H]-cAMP or cGMP with [^3H]-cGMP as substrates. The enzyme pμreparation (25 μL) was incubated for 30 min at 37°C in a total assay volume of […] containing 50 mM Tris-HCl (pH 7.4), 3 mM MgCl2, 1 mM dithiothreitol, 0.05% BSA, 1 μM cAMP with 0.2 μCi [^3H]-cAMP as a substrate alone or in the presence of 0.1 units calmodulin with 10 μM CaCl2 or 5 μM cGMP, and 1 μM cGMP with 0.2 μCi [^3H]-cGMP as another substrate alone or in the presence of 0.1 units calmodulin with 10 μM CaCl2. In tests of enzyme inhibition, the reaction mixture contained 10 μL of vehicle or inhibitors, at various concentrations of S-petasin or selective PDE1–5 inhibitors, such as vinpocetin [22], EHNA [23], milrinone, Ro 20-1724 [25] and zaprinast, as reference drugs. The reagents and homogenate were mixed on ice, and the reaction was initiated by transferring the mixture to a water bath at 37°C. Following a 30-min incubation, the reaction was stopped by transferring the reaction vessel to a bath of boiling water for 3 min. After cooling on ice, 20 μL of a 1 mg/mL solution of C. atrox snake venom was added to the reaction mixture, and the mixture was incubated at 37°C for 10 min. Unreacted [^3H]-cAMP or [^3H]-cGMP was removed by the addition of 500 μL of a 1-in-1 Tris-HCl (40 mM) buffer suspension of Dowex resin (1 × 8-200) with incubation on ice for 30 min. Each tube was then centrifuged for 2 min at 3700 g, and 150 μL of the supernatant was removed for liquid scintillation counting. Less than 10% of the tritiated cyclic nucleotide was hydrolyzed in this assay. The total protein in each fraction used was assayed according to the method described by Bradford. The PDE activities are shown as nmol/mg/min in the Lineweaver-Burk analysis.

[2] = test system: high-affinity rolipram binding sites (HARBSs) of guinea pig brain cell membranes; assay: Displacement of [3H]-rolipram (PDE4H determination)
Description: When the above-described guinea pigs were sacrificed, the whole brains were removed and homogenized with a glass/Teflon homogenizer (Glas-Col, Terre Haute, IN, USA) in 10 volumes of cold medium (pH 6.5) containing 20 mM Bis-Tris, 2 mM benzamidine, 2 mM EDTA, 50 mM sodium chloride, 0.1 mM PMSF and 1 mM dithiothreitol. At 4°C, the homogenate was centrifuged at 170 g for 5 min to remove connective tissues and blood vessels. The suspended homogenate was then re-centrifuged at 40 000 g for 30 min to separate the cytosolic and particulate portions. The particulate portion was re-suspended in a suspension at a concentration of 400 mg/mL (wet weight/volume), after washing three times with homogenizing buffer. The particulate portion mainly consisted of cell membranes. The binding ability of S-petasin (3–300 μM) or Ro 20-1724 (1–10,000 nM), a reference drug, to high-affinity rolipram binding sites (HARBSs) of the membranes was determined by replacing 2 nM [^3H]-rolipram in a reaction buffer at 30°C for 1 h, according to the method described by previous investigators and modified by us. Briefly, the reaction buffer consisted of 50 mM Tris-HCl and 5 mM MgCl2 (pH 7.5). The total volume of the reaction mixture was 25 μL, consisting of 10 μL of particulate suspension, 10 μL of [^3H]-rolipram and 5 μL of S-petasin or Ro 20-1724. After 1 h, the reaction was terminated by moving the reaction vessel into crushed ice. Then the reaction mixture was transferred onto Whatman GF/B glass-fiber filters, which were soaked in a 0.3% polyethyleneimine solution in a mini-funnel. The reaction mixture was filtered by centrifuging at 90 g for 10 s, and the filtrate was collected into a 1.5 mL Eppendorf tube with a top adapted to the outlet of the mini-funnel. The filters were washed with 300 μL of reaction buffer three times each in the same way, and transferred into 2 mL of cocktail for radiation counting (total binding) using a β-scintillation counter (Beckman, Fullerton, CA, USA). Non-specific binding, which was defined in the presence of 10 μM Ro 20-1724, was subtracted from the total binding to yield the specific binding. The effective concentration (EC50) values of S-petasin and Ro 20-1724, at which a half of [^3H]-rolipram bound onto HARBSs of cell membranes was displaced, were defined as the PDE4H values, and these were related to any adverse effects, such as nausea, vomiting and gastric hypersecretion.

[3] = test system: isolated sensitized guinea pig trachea; assay: OVA-induced tracheal contractions and baseline tension in vitro
Description: Male Hartley guinea pigs (500–600 g) were sensitized by intramuscular injections of 0.7 mL of 5% (w/v) OVA in saline on Days 1, 4 and 43, and in adjuvant on Days 25 and 39 into each thigh, according to a method described by Underwood et al. and modified by us. Three days after the last injection, sensitized guinea pigs were sacrificed by cervical dislocation, and their tracheas removed. Each trachea was cut into six segments. Each segment consisted of three cartilage rings. All segments were cut open opposite the trachealis. […] Tissues were suspended in normal Krebs solution under an initial tension of 1.5 g and allowed to equilibrate for at least 1 h with washing at 15-min intervals. After the tissues were precontracted with KCl (60 mM) and washed with normal Krebs solution, OVA (0.1–100 μg/mL) was cumulatively added, and contractions were allowed to reach a steady state at each concentration. […] Therefore, the log concentration-response curves of OVA were constructed in the absence and presence of S-petasin. The tension of the precontraction induced by KCl was set as 100%.

[4] = test system: guinea pig trachea; conditions: cited from earlier work
[5] = test system: cAMP-phosphodiesterase (PDE); set-up: method as in PMID 11345692; conditions: cited from earlier work
[6] = molecular target: T1, PDE2 (Cavia porcellus, UniProt A0A286XUV5); assay: Inhibition of PDE2 activity (two-step radioenzymatic assay); format: biochemical, guinea pig; conditions: mean ± SEM (n); read-out: IC50 on PDE isozyme 2
T1 sequence (A0A286XUV5 22-936): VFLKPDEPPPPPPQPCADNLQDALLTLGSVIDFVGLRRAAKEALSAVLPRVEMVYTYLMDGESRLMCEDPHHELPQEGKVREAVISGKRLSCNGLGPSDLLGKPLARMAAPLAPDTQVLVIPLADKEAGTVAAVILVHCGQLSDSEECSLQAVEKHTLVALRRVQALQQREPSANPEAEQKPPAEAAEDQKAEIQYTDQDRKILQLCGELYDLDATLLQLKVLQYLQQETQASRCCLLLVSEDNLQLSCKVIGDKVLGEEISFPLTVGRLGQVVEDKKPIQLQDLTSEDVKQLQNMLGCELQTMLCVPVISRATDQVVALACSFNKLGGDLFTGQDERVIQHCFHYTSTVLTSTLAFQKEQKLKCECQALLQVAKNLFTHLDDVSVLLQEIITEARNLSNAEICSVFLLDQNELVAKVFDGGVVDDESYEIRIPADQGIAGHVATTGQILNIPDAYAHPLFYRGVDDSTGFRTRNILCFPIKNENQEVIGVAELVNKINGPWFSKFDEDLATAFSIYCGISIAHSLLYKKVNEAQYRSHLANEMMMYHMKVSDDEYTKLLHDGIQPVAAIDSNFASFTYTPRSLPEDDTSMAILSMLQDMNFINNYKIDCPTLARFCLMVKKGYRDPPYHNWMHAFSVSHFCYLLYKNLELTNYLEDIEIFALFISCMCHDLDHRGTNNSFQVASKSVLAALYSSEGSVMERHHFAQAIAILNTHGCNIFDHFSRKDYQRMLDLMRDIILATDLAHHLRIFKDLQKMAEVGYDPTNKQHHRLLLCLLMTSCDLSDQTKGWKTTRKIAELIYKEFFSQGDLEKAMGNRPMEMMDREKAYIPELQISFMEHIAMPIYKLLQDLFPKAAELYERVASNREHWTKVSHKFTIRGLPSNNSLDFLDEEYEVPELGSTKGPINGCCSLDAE
Description: as §1, with “In tests of enzyme inhibition, the reaction mixture contained 10 μL of vehicle or inhibitors, at various concentrations of S-petasin or selective PDE1–5 inhibitors, such as vinpocetin [22], EHNA [23], milrinone, Ro 20-1724 [25] and zaprinast, as reference drugs.” left out, “Each tube was then centrifuged for 2 min at 3700 g, and 150 μL of the supernatant was removed for liquid scintillation counting. Less than 10% of the tritiated cyclic nucleotide was hydrolyzed in this assay. The total protein in each fraction used was assayed according to the method described by Bradford. The PDE activities are shown as nmol/mg/min in the Lineweaver-Burk analysis.” left out

With `CCCCOc1cc(CC2CNC(=O)N2)ccc1OC` (stereo not drawn) [Ro 20-1724, 4-(3-butoxy-4-methoxybenzyl)-2-imidazolidinone, reference compound] as the compound, how does the Ki ([1]; Lineweaver-Burk analysis, cAMP substrate, read-out: Ki on PDE isozyme 4) read?
The Ki was 4.2 ± 0.7 µM.

What about the “Mode of inhibition of PDE4 activity” value ([1]; Lineweaver-Burk analysis, S-petasin 3–30 μM, Ro 20-1724 1–10 μM) of the same compound?
The value was “competitively inhibited”.

And the IC50 ([1]; mean ± SEM (n), read-out: IC50 on PDE isozyme 4 (taken as PDE4L value))?
Its IC50 is 6.9 ± 0.6 µM.

What about the EC50 ([2]; HARBSs of guinea pig brain cell membranes) of the same compound?
The EC50 was 0.0958 ± 0.0136 µM.

What about the “percentage displacement of [3H]-rolipram binding” value ([2]; at the highest concentration (10 000 nM), 2 nM [3H]-rolipram) of the same compound?
Its value is 100%±2.1%.

And the “OVA (10 μg/mL)-induced contractions” value ([3]; 30 μM)?
Its value is “significantly inhibited”.

What about the Baseline tension ([3]; 3–30 μM) of the same compound?
The Baseline tension was “concentration-dependently and significantly relaxed”.

And the “OVA (10–100 μg/mL)-induced contractions” value ([3]; 10–30 μM)?
The value was “concentration-dependently inhibited”.

With S-isopetasin as the compound, how does the IC50 ([4]; precontracted by CCh and KCl, read-out: IC50 in relaxing guinea pig trachea) read?
The IC50 was roughly 10 µM.

What about the “Relaxing effect on guinea pig trachea” value ([4]; precontracted by histamine and LT D4) of the same compound?
Its value is “almost no effect”.

What about the “Inhibition of cAMP-phosphodiesterase (PDE) activity” value [5] of the same compound?
Its value is “not”.

Which IC50 [6] does the source give for `CCCCCC[C@@H]([C@@H](C)O)n1cnc2c(N)ncnc21` (racemic) [EHNA, erythro-9-(2-hydroxy-3-nonyl)-adenine HCl] here?
Its IC50 is 6.5 ± 1 µM.
